# Experiments:
# [1] = biological target: T1, Matrix metalloproteinase 1 (MMP-1) (Homo sapiens, UniProt P03956); test: casein zymography of protein from fibroblast culture medium preincubated with compound; format: cell-based; details: read-out: % inhibition at 1000 μg/mL
# T1 construct: gene MMP1; MMP-1 secreted by human fibroblast (Detroit551) cells, 54 kDa band
# T1 sequence (P03956 20-469): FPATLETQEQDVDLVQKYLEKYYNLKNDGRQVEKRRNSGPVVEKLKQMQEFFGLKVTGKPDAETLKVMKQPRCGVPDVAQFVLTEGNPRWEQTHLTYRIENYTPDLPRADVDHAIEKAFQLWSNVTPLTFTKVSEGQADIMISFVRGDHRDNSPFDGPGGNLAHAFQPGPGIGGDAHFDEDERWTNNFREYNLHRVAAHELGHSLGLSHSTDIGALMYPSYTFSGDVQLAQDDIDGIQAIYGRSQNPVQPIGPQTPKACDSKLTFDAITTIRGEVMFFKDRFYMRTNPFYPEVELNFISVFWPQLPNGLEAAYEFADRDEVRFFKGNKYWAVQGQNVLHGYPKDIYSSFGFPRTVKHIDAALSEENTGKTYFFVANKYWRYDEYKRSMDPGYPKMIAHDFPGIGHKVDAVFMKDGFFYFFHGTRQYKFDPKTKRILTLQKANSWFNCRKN
# [2] = biological target: T1, Matrix metalloproteinase 1 (MMP-1); test: casein zymography of protein from fibroblast culture medium preincubated with compound (reference inhibitor); format: cell-based; details: read-out: % inhibition at 1000 μg/mL
Compound,inhibition at 1000 µg/mL [1] [%],inhibition at 1000 µg/mL [2] [%]
Oc1cc(O)c2c(c1)O[C@H](c1ccc(O)c(O)c1)[C@H](O)C2 [(-)-epicatechin],69.2,–
O=C(O[C@@H]1Cc2c(O)cc(O)cc2O[C@@H]1c1cc(O)c(O)c(O)c1)c1cc(O)c(O)c(O)c1 [epigallocatechin gallate],–,75.6
Oc1cc(O)c2c(c1)O[C@H](c1ccc(O)c(O)c1)[C@H](O)[C@H]2c1c(O)cc(O)c2c1O[C@H](c1ccc(O)c(O)c1)[C@H](O)C2 [proanthocyanidin B2],43.4,–
